# Test results from PubChem BioAssay AID1259407 (Chemical Carcinogenesis Research Information System (CCRIS), 2018).
# Active and inactive are the calls of the source. How the calls were made is not given here.
# Tested on: CCRIS mutagenicity, Ames/micronucleus/aberration tests
# Assay: CCRIS mutagenicity studies
# [1] = Test System: AMES SALMONELLA TYPHIMURIUM, Strain/Indicator: TA1535, Metabolic Activation: NONE, Method: PREINCUBATION
# [2] = Test System: AMES SALMONELLA TYPHIMURIUM, Strain/Indicator: TA1537, Metabolic Activation: NONE, Method: PREINCUBATION
# [3] = Test System: AMES SALMONELLA TYPHIMURIUM, Strain/Indicator: TA100, Metabolic Activation: NONE, Method: STANDARD PLATE
# [4] = Test System: AMES SALMONELLA TYPHIMURIUM, Strain/Indicator: TA98, Metabolic Activation: NONE, Method: STANDARD PLATE
# [5] = Test System: AMES SALMONELLA TYPHIMURIUM, Strain/Indicator: TA1535, Metabolic Activation: NONE, Method: STANDARD PLATE
# [6] = Test System: AMES SALMONELLA TYPHIMURIUM, Strain/Indicator: TA98, Metabolic Activation: RAT, LIVER, S-9, AROCLOR 1254, Method: STANDARD PLATE
# [7] = Test System: AMES SALMONELLA TYPHIMURIUM, Strain/Indicator: TA100, Metabolic Activation: RAT, LIVER, S-9, AROCLOR 1254, Method: STANDARD PLATE
structure (smiles),measurement,setting,value
CC(O)COC(C)(C)C (stereo not given),mutagenic call,"End Point: IN VITRO CHROMOSOMAL ABERRATIONS, Test System: CHO, Metabolic Activation: NONE",inactive; negative
same,mutagenic call,"End Point: IN VITRO CHROMOSOMAL ABERRATIONS, Test System: CHO, Metabolic Activation: S-9",inactive; negative
same,mutagenic call,"End Point: IN VIVO MICRONUCLEUS, Test System: PERIPHERAL BLOOD ERYTHROCYTES, Species: MOUSE, Strain/Sex: B6C3F1/FEMALE, Route: INHALATION",active; positive (weak)
same,mutagenic call,"End Point: IN VIVO MICRONUCLEUS, Test System: PERIPHERAL BLOOD ERYTHROCYTES, Species: MOUSE, Strain/Sex: B6C3F1/MALE, Route: INHALATION",inactive; negative
same,mutagenic call,"Test System: AMES SALMONELLA TYPHIMURIUM, Strain/Indicator: TA97, Metabolic Activation: HAMSTER, LIVER, S-9 (30%), AROCLOR 1254, Method: PREINCUBATION",inactive; negative
same,mutagenic call,"Test System: AMES SALMONELLA TYPHIMURIUM, Strain/Indicator: TA97, Metabolic Activation: NONE, Method: PREINCUBATION",active; positive
same,mutagenic call,"Test System: AMES SALMONELLA TYPHIMURIUM, Strain/Indicator: TA97, Metabolic Activation: RAT, LIVER, S-9 (30%), AROCLOR 1254, Method: PREINCUBATION",inactive; negative
same,mutagenic call,"Test System: AMES SALMONELLA TYPHIMURIUM, Strain/Indicator: TA98, Metabolic Activation: HAMSTER, LIVER, S-9 (30%), AROCLOR 1254, Method: PREINCUBATION",inactive; negative
same,mutagenic call,"Test System: AMES SALMONELLA TYPHIMURIUM, Strain/Indicator: TA98, Metabolic Activation: NONE, Method: PREINCUBATION",inactive; negative
same,mutagenic call,"Test System: AMES SALMONELLA TYPHIMURIUM, Strain/Indicator: TA98, Metabolic Activation: RAT, LIVER, S-9 (30%), AROCLOR 1254, Method: PREINCUBATION",inactive; negative
same,mutagenic call,"Test System: AMES SALMONELLA TYPHIMURIUM, Strain/Indicator: TA100, Metabolic Activation: HAMSTER, LIVER, S-9 (30%), AROCLOR 1254, Method: PREINCUBATION",inactive; negative
same,mutagenic call,"Test System: AMES SALMONELLA TYPHIMURIUM, Strain/Indicator: TA100, Metabolic Activation: NONE, Method: PREINCUBATION",inactive; negative
same,mutagenic call,"Test System: AMES SALMONELLA TYPHIMURIUM, Strain/Indicator: TA100, Metabolic Activation: RAT, LIVER, S-9 (30%), AROCLOR 1254, Method: PREINCUBATION",inactive; negative
same,mutagenic call,"Test System: AMES SALMONELLA TYPHIMURIUM, Strain/Indicator: TA1535, Metabolic Activation: HAMSTER, LIVER, S-9 (30%), AROCLOR 1254, Method: PREINCUBATION",inactive; negative
same,mutagenic call,[1],inactive; negative
same,mutagenic call,"Test System: AMES SALMONELLA TYPHIMURIUM, Strain/Indicator: TA1535, Metabolic Activation: RAT, LIVER, S-9 (30%), AROCLOR 1254, Method: PREINCUBATION",inactive; negative
same,mutagenic call,[2],inactive; negative
ClCc1c2ccccc2cc2c1ccc1ccccc12,mutagenic call,[3],active; positive
C=C(C)C1CCC(=C)C2C3=C(C[C@H](C)C3=O)C(=O)C(C)=C[C@@H]12 (stereo not given in full),mutagenic call,[4],inactive; negative
same,mutagenic call,"Test System: AMES SALMONELLA TYPHIMURIUM, Strain/Indicator: TA98, Method: STANDARD PLATE",inactive; negative
same,mutagenic call,[3],inactive; negative
same,mutagenic call,"Test System: AMES SALMONELLA TYPHIMURIUM, Strain/Indicator: TA100, Method: STANDARD PLATE",inactive; negative
CNNC,mutagenic call,"Test System: AMES SALMONELLA TYPHIMURIUM, Strain/Indicator: TA102, Metabolic Activation: NONE, Method: PREINCUBATION",inactive; negative
same,mutagenic call,"Test System: AMES SALMONELLA TYPHIMURIUM, Strain/Indicator: TA102, Metabolic Activation: NONE, Method: STANDARD PLATE",inactive; negative
same,mutagenic call,[1],inactive; negative
same,mutagenic call,[5],inactive; negative
same,mutagenic call,"Test System: AMES SALMONELLA TYPHIMURIUM, Strain/Indicator: TA1535, Metabolic Activation: RAT, LIVER, S-9, AROCLOR 1254, Method: PREINCUBATION",inactive; negative
same,mutagenic call,[2],inactive; negative
same,mutagenic call,"Test System: AMES SALMONELLA TYPHIMURIUM, Strain/Indicator: TA1537, Metabolic Activation: RAT, LIVER, S-9, AROCLOR 1254, Method: PREINCUBATION",inactive; negative
same,mutagenic call,"Test System: AMES SALMONELLA TYPHIMURIUM, Strain/Indicator: TA2638, Metabolic Activation: NONE, Method: STANDARD PLATE",active; positive
same,mutagenic call,"Test System: AMES SALMONELLA TYPHIMURIUM, Strain/Indicator: YG7108, Metabolic Activation: NONE, Method: STANDARD PLATE",active; positive
same,mutagenic call,"Test System: E. COLI, Strain/Indicator: WP2 (PKM101), Metabolic Activation: NONE, Method: STANDARD PLATE",active; positive
same,mutagenic call,"Test System: E. COLI, Strain/Indicator: WP2 UVRA (PKM101), Metabolic Activation: NONE, Method: STANDARD PLATE",active; positive
CCOP(=S)(OCC)Oc1ccc(S(C)=O)cc1 (stereo not given),mutagenic call,"End Point: In vivo micronucleus, Species: Mouse, Strain/Sex: NMRI/Male and female",inactive; negative
O=CC(O)C(O)C(O)C(O)COC1OC(COC2OC(CO)C(O)C(O)C2O)C(O)C(O)C1O (stereo not given),mutagenic call,"Test System: AMES SALMONELLA TYPHIMURIUM, Strain/Indicator: TA98, Metabolic Activation: HAMSTER, LIVER, S-9, AROCLOR 1254, Method: STANDARD PLATE",inactive; negative
same,mutagenic call,[4],inactive; negative
same,mutagenic call,[6],inactive; negative
same,mutagenic call,"Test System: AMES SALMONELLA TYPHIMURIUM, Strain/Indicator: TA100, Metabolic Activation: HAMSTER, LIVER, S-9, AROCLOR 1254, Method: STANDARD PLATE",inactive; negative
same,mutagenic call,[3],inactive; negative
same,mutagenic call,[7],inactive; negative
same,mutagenic call,"Test System: AMES SALMONELLA TYPHIMURIUM, Strain/Indicator: TA1535, Metabolic Activation: HAMSTER, LIVER, S-9, AROCLOR 1254, Method: STANDARD PLATE",inactive; negative
same,mutagenic call,[5],inactive; negative
same,mutagenic call,"Test System: AMES SALMONELLA TYPHIMURIUM, Strain/Indicator: TA1535, Metabolic Activation: RAT, LIVER, S-9, AROCLOR 1254, Method: STANDARD PLATE",inactive; negative
same,mutagenic call,"Test System: AMES SALMONELLA TYPHIMURIUM, Strain/Indicator: TA1537, Metabolic Activation: HAMSTER, LIVER, S-9, AROCLOR 1254, Method: STANDARD PLATE",inactive; negative
same,mutagenic call,"Test System: AMES SALMONELLA TYPHIMURIUM, Strain/Indicator: TA1537, Metabolic Activation: NONE, Method: STANDARD PLATE",inactive; negative
same,mutagenic call,"Test System: AMES SALMONELLA TYPHIMURIUM, Strain/Indicator: TA1537, Metabolic Activation: RAT, LIVER, S-9, AROCLOR 1254, Method: STANDARD PLATE",inactive; negative
same,mutagenic call,"Test System: AMES SALMONELLA TYPHIMURIUM, Strain/Indicator: TA1538, Metabolic Activation: HAMSTER, LIVER, S-9, AROCLOR 1254, Method: STANDARD PLATE",inactive; negative
same,mutagenic call,"Test System: AMES SALMONELLA TYPHIMURIUM, Strain/Indicator: TA1538, Metabolic Activation: NONE, Method: STANDARD PLATE",inactive; negative
same,mutagenic call,"Test System: AMES SALMONELLA TYPHIMURIUM, Strain/Indicator: TA1538, Metabolic Activation: RAT, LIVER, S-9, AROCLOR 1254, Method: STANDARD PLATE",inactive; negative
same,mutagenic call,"Test System: Mouse lymphoma, Strain/Indicator: L5178Y (tk+/tk-), Metabolic Activation: None, Method: Suspension/plate",inactive; negative
same,mutagenic call,"Test System: Mouse lymphoma, Strain/Indicator: L5178Y (tk+/tk-), Metabolic Activation: Rat, Liver, S-9, Aroclor 1254, Method: Suspension/plate",inactive; negative
CC(=O)Nc1ccc(C(=O)[C@H]2O[C@H]2c2ccccc2)cc1,mutagenic call,[4],inactive; negative
same,mutagenic call,[6],inactive; negative
same,mutagenic call,[3],active; positive
same,mutagenic call,[7],active; positive
COC(=O)Nc1nc2ccc(/C(=N/O)c3ccc(F)cc3)cc2[nH]1,mutagenic call,[4],inactive; negative
same,mutagenic call,[6],active; positive
same,mutagenic call,[3],inactive; negative
same,mutagenic call,[7],inactive; negative
CCN(CC)[N+](=O)[O-],mutagenic call,"Test System: E. COLI, Strain/Indicator: WP2 (HCR-), Metabolic Activation: RAT, LIVER, MICROSOMES, PHENOBARBITAL",inactive; negative
